Data taken from US10869904B2, “Pharmaceutical composition for preventing or treating respiratory disease comprising extract of Justicia procumbens L” (DONG WHA PHARM. CO., LTD., priority 2016, dated 2020).
Where two headings read alike, the source gives them in different places. Marks after values point to notes of the source that are not given here.

Key:
ICR mice = test: Test for evaluation of expectorant activity (phenol red in trachea); format: in vivo; details: 200 mg/kg, oral, male ICR mice
Description: In order to evaluate the expectorant activities of the water and ethanol extracts of Justicia procumbens L., prepared in Preparation Examples 1-1 to 1-2, a test for evaluation of expectorant activity was performed using male ICR mice (weighed 30 to 33 g; Orientbio). Specifically, the extracts and the comparative drug ambroxol (200 mg/kg, Boehringer Ingelheim) were administered orally to the respective groups of mice that fasted the previous day. […] The isolated trachea was freeze-stored in 1 ml of physiological saline for 24 hours. Next, the trachea was sonicated, and 1N NaOH was added to the supernatant (0.1 ml of 1N NaOH per ml of the supernatant). Then, the absorbance at 546 nm was measured and the expectorant activity was measured with the concentration of phenol red.

splenocytes = test: Inhibition of Concanavalin A-induced splenocyte proliferation (CCK8); format: cell-based, Balb/c mice; details: Mus musculus, Splenocyte
Description: (§1) The isolated splenocytes were diluted in RPMI medium (containing 10% fetal bovine serum (FBS) and antibiotics (100 U/mL penicillin and 100 μg/mL streptomycin)) at a concentration of 5×10^6 cells/nit, and the cell dilution was dispended in a 24-well plate in an amount of 500 μl/well and in a 96-well plate in an amount of 100 μl/well. The plates were incubated in a 5% CO2 incubator at 37° C. for 48 hours. […] The medium of the 24-well plate was used to measure the degree of secretion of Th2 inflammatory cytokines (IL4 and IL5), and the 96-well plate was used to measure the degree of cell proliferation. First, in order to measure Th2 cytokines, the medium in the 24-well plate was collected and centrifuged at 800×g for 5 minutes, and the supernatant was collected. 100 μl of the supernatant per well was used in IL4 or IL5 enzyme-linked immunosorbent assay (ELISA, Komabiotech Inc.) to measure the degree of secretion of these cytokines. In order to measure the degree of cell proliferation, […] of CCK8 (cell counting kit 8, Donjindo) solution was added to each well of the 96-well plate, and after 4 hours, the absorbance value was measured. The degree of inhibition of spleen cell proliferation by each drug and the degree of inhibition of Th2 cytokine secretion by each drug were calculated using Equation 2 below. For drug synergistic effects, a linear equation was constructed using the concentrations of drugs administered alone as x-coordinates and using drug concentration-dependent inhibition as y-coordinates. Using this linear equation, the concentrations of drugs administered alone, which correspond to inhibition achieved when administered in combination, were calculated, and combination index (CI) was calculated using Equation 3 below. A CI value of less than 1 indicates a synergistic effect, a CI value of 1 indicates an additive effect, and a CI value of more than 1 indicates an antagonistic effect (Liang Zhao et. al., Clinical Cancer Research, 10, 7994-8004, 2004). […]

IL4 = test: Inhibition of IL4 secretion by Concanavalin A-treated splenocytes (ELISA); format: cell-based, Balb/c mice
Description: as §1

IL5 = test: Inhibition of IL5 secretion by Concanavalin A-treated splenocytes (ELISA); format: cell-based, Balb/c mice
Description: as §1

[1] = system: Neutrophilic Asthma Balb/c Mouse Models; test: Asthma inhibitory effect in neutrophilic asthma model (ovalbumin + LPS): lung lavage fluid and lung tissue; format: in vivo, Balb/c mice; details: oral
Description: On 0 and 7 days after 1 week of acclimation, each of the mice was systematically sensitized by intranasally administering 75 μg of ovalbumin and 10 μg of lipopolysaccharide (LPS). 20, 50 or 100 mg/kg of the Justicia procumbens L. prepared in Preparation Example 3 or a positive control (10 mg/kg of dexamethasone and 1 mg/kg of montelukast) was administered orally to the mice On days 14, 15, 21, 22, 28, 29, 35, 36 and 37. One hour after administration, 50 μg of ovalbumin was administered intranasally to the mice. 24 hours after final sensitization (day 37), lung lavage fluid was obtained through tracheostomy, and the lung tissue was isolated. The collected lung lavage fluid was centrifuged at 3000 rpm […], and the supernatant was used to measure physiologically active substances (IL-4, IL-5, and IFN-γ), and the pellets were used to measure the number of inflammatory cells. The physiologically active substances (interleukin-4 (IL-4), interleukin-5 (IL-5), and interferon-gamma (IFN-γ)) in the isolated lung lavage fluid were measured using an enzyme-linked immunosorbent assay (ELISA, IL-4: Komabiotech #K0331144, IL-5: R&D system #M5000, IFN-γ: Komabiotech #K0331138) corresponding to each substance. In addition, the lung lavage fluid pellets were re-dissolved in 0.5 mL of phosphate buffered saline, and 0.1 mL of the solution was added to each well of a 96-well plate and centrifuged at 800 rpm for 5 minutes to attach the cells to the bottom (3 wells per sample). Then, each sample was stained with Diff Quik staining solution (Sysmex), and photographed with a microscope at 2-6 random sites. About 200 cells per sample were counted and the percentage (%) of inflammatory cells of each sample was calculated. The total number of inflammatory cells was measured with a microscope using a hematocytometer, and the number of eosinophils and the number of neutrophils were calculated using the percentage (%) of inflammatory cells of each sample. Staining of the lung tissue was performed in the same manner as described in Example 5 above. Statistical processing was performed using an SPSS program, and a Levene test was performed for a test for equal variance, and significance was tested by one-way analysis (ANOVA).

[2] = Table 5, 0.5 μM, read-out: Inhibition of splenocyte proliferation (%, n = 3, Mean ± SD)
[3] = Table 8, Concentration (mM) 0.2

SMILES: Nc1c(Br)cc(Br)cc1CN[C@H]1CC[C@H](O)CC1 [Ambroxol, ambroxol]
- Expectoration (%, n = 4, Mean ± SE) (ICR mice): 11.4 ± 12.89%

SMILES: CC(C)(O)c1ccccc1CC[C@@H](SCC1(CC(=O)O)CC1)c1cccc(/C=C/c2ccc3ccc(Cl)cc3n2)c1 [Montelukast, montelukast]
- inhibition at 10 µM (splenocytes; Table 4, 10 μM, read-out: Inhibition of splenocyte proliferation (n = 3, Mean ± SD)): 44.1 ± 4.34%
- inhibition at 0.5 µM (splenocytes; [2]): 40.2 ± 2.64%
- inhibition at 10 µM (IL4; Mus musculus, Splenocyte, Table 7, 10 μM, read-out: Inhibition of IL4 secretion (%, n = 2, Mean ± SD)): -42.6 ± 0.08%
- inhibition at 10 µM (IL5; Mus musculus, Splenocyte, Table 7, 10 μM, read-out: Inhibition of IL5 secretion (%, n = 2, Mean ± SD)): 70.2 ± 0.01%
- Epithelium thickness (μm), n = 5, Mean ± S.E. ([1]; 10 mg/kg): 25.5 ± 1.64 μm
- Lung lavage fluid_IFN-γ (pg/mL), n = 5, Mean ± S.E. ([1]; 10 mg/kg): 32.2 ± 2.13## pg/mL
- Lung lavage fluid_IL-4 (pg/mL), n = 5, Mean ± S.E. ([1]; 10 mg/kg): 96.9 ± 14.40## pg/mL
- Lung lavage fluid_IL-5 (pg/mL), n = 5, Mean ± S.E. ([1]; 10 mg/kg): 194.4 ± 23.1## pg/mL
- Lung lavage fluid_eosinophil number (×10^5), n = 5, Mean ± S.E. ([1]; 10 mg/kg): 0.7 ± 0.05## ×10^5
- Lung lavage fluid_neutrophil number (×10^5), n = 5, Mean ± S.E. ([1]; 10 mg/kg): 1.5 ± 0.07## ×10^5
- Lung lavage fluid_total inflammatory cell number (×10^5), n = 5, Mean ± S.E. ([1]; 10 mg/kg): 4.0 ± 0.25## ×10^5
- Subepithelial smooth muscle thickness (μm), n = 5, Mean ± S.E. ([1]; 10 mg/kg): 10.7 ± 0.59 μm

SMILES: C[C@@H]1C[C@H]2[C@@H]3CCC4=CC(=O)C=C[C@]4(C)[C@@]3(F)[C@@H](O)C[C@]2(C)[C@@]1(O)C(=O)CO [Dexamethasone, dexamethasone]
- inhibition at 0.5 µM (splenocytes; Table 4, 0.5 μM, read-out: Inhibition of splenocyte proliferation (n = 3, Mean ± SD)): 110.3 ± 0.62%
- inhibition at 0.5 µM (splenocytes; [2]): 118.7 ± 0.21%
- inhibition at 0.2 µM (splenocytes; Table 6, 0.2 μM, read-out: Inhibition of splenocyte proliferation (%, n = 3, Mean ± SD)): 94.1 ± 1.8%
- inhibition at 0.5 µM (IL4; Mus musculus, Splenocyte, Table 7, 0.5 μM, read-out: Inhibition of IL4 secretion (%, n = 2, Mean ± SD)): 100%
- Inhibition of IL4 secretion (%, n = 2, Mean ± SD) (IL4; [3]): 97.8 ± 0.00%
- inhibition at 0.5 µM (IL5; Mus musculus, Splenocyte, Table 7, 0.5 μM, read-out: Inhibition of IL5 secretion (%, n = 2, Mean ± SD)): 103%
- Inhibition of IL5 secretion (%, n = 2, Mean ± SD) (IL5; [3]): 98.9 ± 0.01%
- Epithelium thickness (μm), n = 5, Mean ± S.E. ([1]; 1 mg/kg): 5.0 ± 0.38##, $$ μm
- Lung lavage fluid_IFN-γ (pg/mL), n = 5, Mean ± S.E. ([1]; 1 mg/kg): 1.3 ± 0.61##, $$ pg/mL
- Lung lavage fluid_IL-4 (pg/mL), n = 5, Mean ± S.E. ([1]; 1 mg/kg): 32.1 ± 9.51## pg/mL
- Lung lavage fluid_IL-5 (pg/mL), n = 5, Mean ± S.E. ([1]; 1 mg/kg): 53.0 ± 13.59##, $$ pg/mL
- Lung lavage fluid_eosinophil number (×10^5), n = 5, Mean ± S.E. ([1]; 1 mg/kg): 0.1 ± 0.01## ×10^5
- Lung lavage fluid_neutrophil number (×10^5), n = 5, Mean ± S.E. ([1]; 1 mg/kg): 0.2 ± 0.02## ×10^5
- Lung lavage fluid_total inflammatory cell number (×10^5), n = 5, Mean ± S.E. ([1]; 1 mg/kg): 1.3 ± 0.07## ×10^5
- Subepithelial smooth muscle thickness (μm), n = 5, Mean ± S.E. ([1]; 1 mg/kg): 2.7 ± 0.35 μm
